Organism: Rattus norvegicus
Assay: DrugMatrix - Regimen: Daily Repeat
Assay type: toxicity, organism-based, Sprague-Dawley
Design: regimen Daily Repeat, gender Male, age 6-8 weeks
Conditions: in vivo, po, route oral GAVAGE, vehicle .5 % CMC; for ABSOLUTE BASOPHIL / ABSOLUTE EOSINOPHIL / ABSOLUTE LYMPHOCYTE / ABSOLUTE MONOCYTE / ABSOLUTE SEGMENTED NEUTROPHIL / BASOPHIL / EOSINOPHIL / ERYTHROCYTE COUNT / HEMATOCRIT / HEMOGLOBIN / LEUKOCYTE COUNT / LYMPHOCYTE / MEAN CORPUSCULAR HEMOGLOBIN / MEAN CORPUSCULAR HEMOGLOBIN CONCENTRATION / MEAN CORPUSCULAR VOLUME / MONOCYTE / NEUTROPHIL / NUCLEATED RED BLOOD CELLS / PLATELET COUNT: tissue Blood; for ALANINE AMINOTRANSFERASE / ALBUMIN / ALKALINE PHOSPHATASE / ASPARTATE AMINOTRANSFERASE / BLOOD UREA NITROGEN / CARBON DIOXIDE / CHOLESTEROL / CREATINE PHOSPHOKINASE / CREATININE / GLUCOSE / LACTATE DEHYDROGENASE / LIPASE / PHOSPHORUS / SODIUM / TOTAL BILIRUBIN / TOTAL PROTEIN / URIC ACID: tissue Plasma
[1] = 15 mg/kg, 72 h, dose level Low, time 3 day
[2] = 15 mg/kg, 120 h, dose level Low, time 5 day
[3] = 750 mg/kg, 72 h, dose level High, time 3 day
[4] = 750 mg/kg, 120 h, dose level High, time 5 day

Structure (SMILES): CC(C)(C)c1ccc(C(O)CCCN2CCC(C(O)(c3ccccc3)c3ccccc3)CC2)cc1 (centres undefined) [TERFENADINE]
- ABSOLUTE BASOPHIL [1]: 0 CELLS/uL
- ABSOLUTE EOSINOPHIL [1]: 0 CELLS/uL
- ABSOLUTE LYMPHOCYTE [1]: 10879.67 CELLS/uL
- ABSOLUTE MONOCYTE [1]: 121.67 CELLS/uL
- ABSOLUTE SEGMENTED NEUTROPHIL [1]: 1165.33 CELLS/uL
- BASOPHIL [1]: 0%
- EOSINOPHIL [1]: 0%
- ERYTHROCYTE COUNT [1]: 5.45 x10E6/uL
- HEMATOCRIT [1]: 33.93%
- HEMOGLOBIN [1]: 12.77 G/DL
- LEUKOCYTE COUNT [1]: 12.17 x10E3/uL
- LYMPHOCYTE [1]: 89.33%
- MEAN CORPUSCULAR HEMOGLOBIN [1]: 23.43 pg
- MEAN CORPUSCULAR HEMOGLOBIN CONCENTRATION [1]: 37.63 G/DL
- MEAN CORPUSCULAR VOLUME [1]: 62.27 fL
- MONOCYTE [1]: 1%
- NEUTROPHIL [1]: 9.67%
- NUCLEATED RED BLOOD CELLS [1]: 0 /100WBC
- PLATELET COUNT [1]: 1158.33 x10E3/uL
- ALANINE AMINOTRANSFERASE [1]: 52.67 u/L
- ALBUMIN [1]: 4.13 G/DL
- ALKALINE PHOSPHATASE [1]: 451 u/L
- ASPARTATE AMINOTRANSFERASE [1]: 72 u/L
- BLOOD UREA NITROGEN [1]: 16.67 mg/dL
- CARBON DIOXIDE [1]: 22.67 mmol/L
- CHOLESTEROL [1]: 70 mg/dL
- CREATINE PHOSPHOKINASE [1]: 139.33 u/L
- CREATININE [1]: 0.18 mg/dL
- GLUCOSE [1]: 155.33 mg/dL
- LACTATE DEHYDROGENASE [1]: 130.33 u/L
- LIPASE [1]: 10.67 u/L
- PHOSPHORUS [1]: 13.47 mg/dL
- SODIUM [1]: 145.6 MEQ/L
- TOTAL BILIRUBIN [1]: 0.17 mg/dL
- TOTAL PROTEIN [1]: 6.1 G/DL
- URIC ACID [1]: 1.37 mg/dL
- ABSOLUTE BASOPHIL [2]: 0 CELLS/uL
- ABSOLUTE EOSINOPHIL [2]: 0 CELLS/uL
- ABSOLUTE LYMPHOCYTE [2]: 14283 CELLS/uL
- ABSOLUTE MONOCYTE [2]: 352.67 CELLS/uL
- ABSOLUTE SEGMENTED NEUTROPHIL [2]: 1897.67 CELLS/uL
- BASOPHIL [2]: 0%
- EOSINOPHIL [2]: 0%
- ERYTHROCYTE COUNT [2]: 5.72 x10E6/uL
- HEMATOCRIT [2]: 34.8%
- HEMOGLOBIN [2]: 13.17 G/DL
- LEUKOCYTE COUNT [2]: 16.53 x10E3/uL
- LYMPHOCYTE [2]: 86.67%
- MEAN CORPUSCULAR HEMOGLOBIN [2]: 23.03 pg
- MEAN CORPUSCULAR HEMOGLOBIN CONCENTRATION [2]: 37.83 G/DL
- MEAN CORPUSCULAR VOLUME [2]: 60.87 fL
- MONOCYTE [2]: 2%
- NEUTROPHIL [2]: 11.33%
- NUCLEATED RED BLOOD CELLS [2]: 0 /100WBC
- PLATELET COUNT [2]: 993 x10E3/uL
- ALANINE AMINOTRANSFERASE [2]: 51.33 u/L
- ALBUMIN [2]: 4.13 G/DL
- ALKALINE PHOSPHATASE [2]: 285 u/L
- ASPARTATE AMINOTRANSFERASE [2]: 91.33 u/L
- BLOOD UREA NITROGEN [2]: 16 mg/dL
- CARBON DIOXIDE [2]: 26.67 mmol/L
- CHOLESTEROL [2]: 66.67 mg/dL
- CREATINE PHOSPHOKINASE [2]: 518.33 u/L
- CREATININE [2]: 0.2 mg/dL
- GLUCOSE [2]: 156 mg/dL
- LACTATE DEHYDROGENASE [2]: 390.67 u/L
- LIPASE [2]: 10.67 u/L
- PHOSPHORUS [2]: 13.3 mg/dL
- SODIUM [2]: 144.33 MEQ/L
- TOTAL BILIRUBIN [2]: 0.1 mg/dL
- TOTAL PROTEIN [2]: 6 G/DL
- URIC ACID [2]: 1.43 mg/dL
- ABSOLUTE BASOPHIL [3]: 0 CELLS/uL
- ABSOLUTE EOSINOPHIL [3]: 0 CELLS/uL
- ABSOLUTE LYMPHOCYTE [3]: 14273 CELLS/uL
- ABSOLUTE MONOCYTE [3]: 481.67 CELLS/uL
- ABSOLUTE SEGMENTED NEUTROPHIL [3]: 1312 CELLS/uL
- BASOPHIL [3]: 0%
- EOSINOPHIL [3]: 0%
- ERYTHROCYTE COUNT [3]: 6.18 x10E6/uL
- HEMATOCRIT [3]: 38.5%
- HEMOGLOBIN [3]: 14.53 G/DL
- LEUKOCYTE COUNT [3]: 16.07 x10E3/uL
- LYMPHOCYTE [3]: 88.67%
- MEAN CORPUSCULAR HEMOGLOBIN [3]: 23.5 pg
- MEAN CORPUSCULAR HEMOGLOBIN CONCENTRATION [3]: 37.77 G/DL
- MEAN CORPUSCULAR VOLUME [3]: 62.27 fL
- MONOCYTE [3]: 3%
- NEUTROPHIL [3]: 8.33%
- NUCLEATED RED BLOOD CELLS [3]: 0 /100WBC
- PLATELET COUNT [3]: 1171.33 x10E3/uL
- ALANINE AMINOTRANSFERASE [3]: 99 u/L
- ALBUMIN [3]: 4.33 G/DL
- ALKALINE PHOSPHATASE [3]: 343.33 u/L
- ASPARTATE AMINOTRANSFERASE [3]: 108 u/L
- BLOOD UREA NITROGEN [3]: 13.33 mg/dL
- CARBON DIOXIDE [3]: 21.33 mmol/L
- CHOLESTEROL [3]: 50 mg/dL
- CREATINE PHOSPHOKINASE [3]: 417.33 u/L
- CREATININE [3]: 0.18 mg/dL
- GLUCOSE [3]: 144.33 mg/dL
- LACTATE DEHYDROGENASE [3]: 236.33 u/L
- LIPASE [3]: 8.67 u/L
- PHOSPHORUS [3]: 12.17 mg/dL
- SODIUM [3]: 145.77 MEQ/L
- TOTAL BILIRUBIN [3]: 0.23 mg/dL
- TOTAL PROTEIN [3]: 5.97 G/DL
- URIC ACID [3]: 1.57 mg/dL
- ABSOLUTE BASOPHIL [4]: 0 CELLS/uL
- ABSOLUTE EOSINOPHIL [4]: 72 CELLS/uL
- ABSOLUTE LYMPHOCYTE [4]: 15584.33 CELLS/uL
- ABSOLUTE MONOCYTE [4]: 134.67 CELLS/uL
- ABSOLUTE SEGMENTED NEUTROPHIL [4]: 2309 CELLS/uL
- BASOPHIL [4]: 0%
- EOSINOPHIL [4]: 0.33%
- ERYTHROCYTE COUNT [4]: 6.8 x10E6/uL
- HEMATOCRIT [4]: 40.3%
- HEMOGLOBIN [4]: 15.4 G/DL
- LEUKOCYTE COUNT [4]: 18.1 x10E3/uL
- LYMPHOCYTE [4]: 86.33%
- MEAN CORPUSCULAR HEMOGLOBIN [4]: 22.7 pg
- MEAN CORPUSCULAR HEMOGLOBIN CONCENTRATION [4]: 38.23 G/DL
- MEAN CORPUSCULAR VOLUME [4]: 59.33 fL
- MONOCYTE [4]: 0.67%
- NEUTROPHIL [4]: 12.67%
- NUCLEATED RED BLOOD CELLS [4]: 0 /100WBC
- PLATELET COUNT [4]: 1002.67 x10E3/uL
- ALANINE AMINOTRANSFERASE [4]: 124.67 u/L
- ALBUMIN [4]: 4.3 G/DL
- ALKALINE PHOSPHATASE [4]: 360.33 u/L
- ASPARTATE AMINOTRANSFERASE [4]: 104.67 u/L
- BLOOD UREA NITROGEN [4]: 16.67 mg/dL
- CARBON DIOXIDE [4]: 27.67 mmol/L
- CHOLESTEROL [4]: 55.67 mg/dL
- CREATINE PHOSPHOKINASE [4]: 566 u/L
- CREATININE [4]: 0.26 mg/dL
- GLUCOSE [4]: 128 mg/dL
- LACTATE DEHYDROGENASE [4]: 180.33 u/L
- LIPASE [4]: 9.67 u/L
- PHOSPHORUS [4]: 12.07 mg/dL
- SODIUM [4]: 145.6 MEQ/L
- TOTAL BILIRUBIN [4]: 0.13 mg/dL
- TOTAL PROTEIN [4]: 6.27 G/DL
- URIC ACID [4]: 1.9 mg/dL

Reference: ChEMBL document CHEMBL3885881, “DrugMatrix”
